Assay [1] concerns immobilized Aβ40 and Aβ42 peptides. Nature of the assay: Solid-phase binding assay (ELISA) of apoE preparations to immobilized Aβ peptides. The conditions noted are these: delipidated or lipidated (HDL/r-HDL) apoE3 and apoE4, 0-150 nM, 3 h. The method, then:
The binding of apoE to Aβ species was studied by ELISA using immobilized freshly prepared (non-aggregated) or 72-h-aggregated Aβ40 and Aβ42 and apoE3 or apoE4 isoforms with different degrees of lipidation. Polystyrene microtitre plates (Immulon2; Dynex Technology, Chantilly, Va., U.S.A.) were coated for 2 h. at 37° C. with either fresh or aggregated Aβ40 and Aβ42 (40(0 ng in 100 μl of 0.1 M NaHCO3, pH 9.6, per well). Under these conditions, 10 ng of fresh Aβ40, 9.6 ng of fresh Aβ42, 10.2 ng of aggregated Aβ40 and 10.9 ng of aggregated Aβ42 (representing 2.5, 2.4, 2.6 and 2.7% of the peptide offered, respectively) were coated to the microtitre wells, as determined by a modification of the Quantigold assay (Diversified Biotech, Boston, Mass., U.S.A.) for protein quantification. After blocking with Superblock (Pierce), increasing concentrations of apoE (0-150 nM in TBS; 100 μl per well) were added to the Aβ-coated wells and incubated for 3 h. at 37° C. Bound apoE was detected with monoclonal anti-apoE antibody (3D12, 1:1000) followed by alkaline-phosphatase-conjugated goat F(ab′)2 anti-mouse IgG (1:3000; BioSource International, Camarillo, Calif., U.S.A.). The reaction was developed for 30 min. with p-nitrophenyl phosphate in diethanolamine buffer (Bio-Rad, Hercules, Calif., U.S.A.), and quantified at 405 nm on a Microplate Reader (Cambridge Technology, Watertown, Mass., U.S.A.). […]
For orientation: In an ELISA, binding on a coated surface is turned into a signal by an enzyme label.

For assay [2], the system named is Tg2576 APP mouse model. Nature of the assay: Radial arm maze after immunization of Tg2576 mice. In kind it is in vivo. The protocol: (§1) Briefly, mice received their first immunization with K6Aβ1-30-NH2(E18E19) at 10.5-13 months of age (peptide: n=23; vehicle: n=24). The animals were bled prior to vaccination, 3 months following the first injection and at the time of sacrifice at 18 to 21 months. The mice were tested in the radial arm maze, subsequently perfused and their brains processed as described (Sigurdsson et al., Am. J. Pathol. 2001; 159:439-4471) (peptide: n=18; vehicle: n=18).
The vaccination was performed in the Tg2576 APP mouse model developed by Karen Hsiao and colleagues (Hsiao et al., Science 1996:274:99-1022). These mice develop Aβ plaques as early as at 11 to 13 months of age. The animals were maintained on a 12-hour light-dark cycle, and had access to food and water ad libitum. The animal care was in accordance with institutional guidelines.
K6Aβ1-30-NH2(E18E19) was supplied as trifluoroacetic acid salt. […]
Animals were kept in test room throughout the experiment, behind a cover to prevent view of the apparatus and room. […] Total number of errors and time to enter all eight arms were recorded. […]
(§2) The data for the amyloid burden within the brain were analyzed by a Student's t-test, one-tailed (GraphPad Prism). The radial arm maze data was analyzed by two-way ANOVA repeated measures. […] Correlation was determined by calculating the Pearson r correlation coefficient.

Assay [3] relates to Tg2576 APP mouse model. Put plainly: Antibody levels in plasma by ELISA after immunization. The class given is in vivo. The conditions noted are these: for IgM response compared to IgG response: plasma at 1:500 dilution. The protocol:
as §1
K6Aβ1-30-NH2(E18E19) was supplied as trifluoroacetic acid salt. The immunization procedure was performed as previously described by us (Sigurdsson et al., Am. J. Pathol. 2001; 159:439-4471) which is the same protocol as described by Schenk and colleagues (Schenk et al., Nature 1999; 400:173-1773) except that the peptide was not incubated overnight at 37° C. before injection. Briefly, the peptide was dissolved in phosphate-buffered saline (PBS) at a concentration of 2 mg/ml and then mixed 1:1 (v/v) with the adjuvant or PBS. Complete Freund's adjuvant was used for the first injection, incomplete Freund's adjuvant for the next three injections, and PBS from the fifth injection forward. The mice received a subcutaneous injection of 100 μl of the mixture (ie, 100 μg/100 μl) followed by a second injection 2 weeks later, and then monthly thereafter. Vaccination using the K6Aβ1-30-NH2(E18E19) peptide started when the mice were 10.5-13 months of age and the mice were sacrificed at 18-21 months of age.
Antibody levels were determined by 1:500 dilutions of plasma using an enzyme-linked immunosorbent assay (ELISA) as described previously (Jimenez-Huete et al., Alzheimers Reports 1998; 1:41-47) in which Aβ or its derivative is coated onto microtiter wells. The antibodies were detected by a goat anti-mouse IgG linked to a horseradish peroxidase (Amersham Pharmacia Biotech, Piscataway, N.J.) or a goat anti-mouse IgM peroxidase conjugate (Sigma, A8786), and tetramethyl benzidine (Pierce, Rockford, Ill.) was the substrate.

Assay [4] deals with Aβ plaques. Nature of the assay: Histology and image analysis of Aβ plaques in brain (6E10 staining). The class given is in vivo, mouse. The protocol:
as §1
Mice were anesthetized with sodium pentobarbital (150 mg/kg, intraperitoneally), perfused transaortically with phosphate buffer and the brains processed as previously described (Sigurdsson et al., Neurobiol. Aging 1996; 17:893-901) The right hemisphere was immersion fixed in periodate-lysine-paraformaldehyde (PLP), whereas the left hemisphere was snap-frozen for measurements of Aβ3 levels using established ELISA methods (Mehta et al., Arch. Neurol. 2000; 57:100-105). Serial coronal sections (40 μm) were cut and every fifth section was stained with 6E10 which recognizes Aβ and stains both pre-amyloid and Aβ plaques (Kim et al., Neurosci Res Comm 1990; 7:113-122). […]
Immunohistochemistry of tissue sections was quantified with a Bioquant image analysis system, and unbiased sampling was used (West et al., Trends Neurosci. 1999; 22:51-61). […] Cortical area analyzed was dorsomedially from the cingulate cortex and extended ventrolaterally to the rhinal fissure within the right hemisphere. The area of the grid was 800×800 μm^2 and amyloid load was measured in 20 frames per mouse (each: 640×480 μm^2), chosen randomly. […] The number of plaques were also counted and the plaques were divided into three groups based on their size (small: 0.01-50 μm^2; medium: 50.01-1000 μm^2; large: >1000 μm^2).
as §2

immobilized Aβ40 and Aβ42 peptides, sequence (P05067 672-711 limits assumed): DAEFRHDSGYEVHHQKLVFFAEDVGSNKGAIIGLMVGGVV

Take “apoE: human apoE3 or apoE4 from Sf9, HEK-293 or RAW-264 cells, delipidated or in HDL/r-HDL particles”: the “binding of apoE to Aβ” value in assay [1] is listed as “high affinity”.

Take “K6Aβ1-30(E18E19): first 30 amino acids of amyloid-β with glutamate substituted for valine and phenylalanine in positions 18 and 19”: in assay [2] (Tg2576 transgenic mice, two-way ANOVA repeated measures, p<0.05), the “errors in the radial arm maze compared to vehicle-treated controls” value is recorded as “significantly fewer errors”. The “radial arm maze performance compared to day 1” value in assay [2] (immunized mice, p<0.01-0.05) is “showed improvements on days 3, 5, and 7-9”. In assay [3] (IgM antibodies after immunization), the “cross-reactivity of generated IgM antibodies” value was “cross-reacted with Aβ1-40”. Besides, the “IgM response compared to IgG response” value in assay [3] was “substantially more pronounced IgM response compared to IgG response”; in assay [3] (listed as K6Aβ1-30-NH2(E18E19)), “high IgM response and low IgG response”. In assay [4] (large: >1000 μm^2), the “effect on large plaques” value was “not significantly (N.S.) affected”. For the same substance, the “reduction of medium sized plaques” value in assay [4] (medium: 50.01-1000 μm^2, p=0.04) worked out at 29%. For the same substance, the “reduction of small plaques” value in assay [4] (small: 0.01-50 μm^2, p=0.02) is given as 34%.

Values taken from patent publication US9409146B2, “Method for treating amyloid disease” (New York University, priority 2002, dated 2016).
